Patent publication US20250115598A1 (Anaxis Pharma Pty Ltd, priority 2021, published 2025)

Key:
human MLKL (full length) = human MLKL (full length) (Homo sapiens (Human), UniProt Q8NB16); test: KINOMEscan binding assay, human MLKL (full length); details: hMLKL, Table 25; read-out: MLKL (KD)
Summary of the method: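 KINOMEscan competition binding using kinase-tagged T7 phage or HEK-293-produced DNA-tagged protein captured on ligand beads, with eluted protein quantified by qPCR. Compounds were run as an 11-point 3-fold series, top 30,000 nM, in 1% DMSO. Kd was fitted with the Hill equation, slope fixed at −1.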

[1] = system: Immortalised Mouse Dermal Fibroblasts (MDFs); test: Cellular assay: inhibition of TSI induced necroptosis, CellTitre-Glo viability; details: Mus musculus, Fibroblast; MDF, 3 hours TSI cocktail, Table 27; read-out: Inhibition of TSI-induced necroptosis (IC50 cell-based assay) in MDF
Description: Cellular Assay: Screening Compounds for Inhibition of TSI Induced Necroptosis in, 384 Well Plate Format.
• Cell Line ID: Immortalised Mouse Dermal Fibroblasts (MDFs). • Cell Concentration (cells/well): Final cell density is 2200 cells per well. • Cell growth medium: DMEM medium+7.4% Fetal Bovine Serum (FBS). Cells are cultured in Corning 150 cm^2 tissue culture flasks with vented caps at 37° C./10% CO2. • Incubation: Plates were incubated for 30 minutes following addition of compounds and then 3 hours incubation with death stimuli (TSI cocktail) at 37° C./10% CO2 in a humidified incubator. • Compound concentration: 36 μM starting concentration, 1:3 dilution, 10 point • DMSO final concentration (% v/v): 0.3%. Compounds in TSI Cocktail (T: TNF; S: Smac Mimetic; I: IDN-6556) and their Final Concentrations: • rhTNF (100 ng/ml) • Compound a (500 nM)—Smac Mimetic, Tetralogic and SYNthesis Med Chem • IDN-6556 (10 μM)—Selleckchem (S7775)
The cellular assay was carried out according to the following steps: • 1. Each well was prepared by sequential addition of: • a. 40 μL of cell suspension (5.5×10^4 cells/mL) was added to each well to provide a final cell concentration of 2,200 cells per well. • b. After 24 hours, DMSO (control; columns 1-2 and 23-24) or compound in DMSO—addition was performed using acoustic transfer of nL volumes of stock compound to give final test concentrations of 36, 12, 4, 1.3, 0.44, 0.148, 0.049, 0.016, 0.005 and 0.002 μM. All wells were backfilled with DMSO to a final total volume in the well of 100 nL. • c. Following compound/DMSO addition in step (b), Plates were incubated for 30 minutes at 37° C./10% CO2 in a humidified incubator and then 10 μL of 5×TSI cocktail (except to positive controls; columns 2 and 24) was added to each well. • 2. After 3 hours, plate was removed from the 37° C. incubator and equilibrated to room temperature for 15 minutes. • 3. 15 μL of room temperatured CellTitre-Glo2™ (Promega™) was added to each well. • 4. Shook plates for 2 minutes (˜600 rpm) and incubated at room temperature for 15 minutes to allow signal to stabilise. • 5. Read luminescence readout on a plate reader.
Percent viability was calculated for each compound according to equation (2):
[formula] • Wherein RawData is the readout of any cell containing a compound of the invention.
TA is the total activity provided by the luminescence readout from DMSO only wells (columns 2 and 24)=100% viability.
NSA is the non-specific activity provided by DMSO+TSI wells (columns 1 and 23)=0% viability • Curve fitting: 10-point titration curves are fitted with the 4-parameter logistic nonlinear regression model and the IC50 reported is the inflection point of the curve • Analysis: Data was loaded into Dotmatics™ and visualised using the Tibco@ • Spotfire™ software. 10 point titration curves were fitted with the 4 parameter logistic nonlinear regression model and the IC50 reported reflect the inflection point of the curve for curve fitting.
Assay involving the TSI cocktail (T: TNF; S: Smac mimetic; I: IDN-6556): TSI treatment ensures that cells specifically undergo necroptotic cell death. TNF activates the TNF receptor, Smac mimetic directs the signal away from proinflammatory signaling and toward the RIPK1/RIPK3-mediated cell death pathways, and IDN-6556 (Caspase inhibitor) ensures that the apoptotic response is blocked leaving only the programmed necrosis response. The compounds' activity (solution in DMSO) tested in this TSI-induced assay was evaluated by determining the number of viable cells in culture by measuring the amount of ATP present as measured by CelltiterGlo.

endogenous MLKL in MDF = endogenous MLKL in MDF (Mus musculus (Mouse), UniProt Q9D2Y4); test: Degradation assay: endogenous MLKL in MDF (western blot); details: MDF cells, 24 h incubation with compound, MLKL adjusted for loading with GAPDH, normalized to DMSO only control, read-out: Degradation of endogenous MLKL in MDF (DC50 cell-based assay)
Description: Degradation Assay: Screening Compounds Procedure to Evaluate the Activity of Compounds in Degrading Endogenous MLKL in Human and Mouse Cell
The mouse dermal fibroblast (MDF) cell line was seeded the day before the experiment in a 24-well plate at a cell density of […] per well in a volume of 0.5 mL per well and left to attach overnight. The human monocyte cell line (U937) was seeded on the day of the experiment in a 24-well plate at a cell density of […] per well in a volume of 0.5 mL per well.
The compound was diluted in DMSO with a starting concentration of 10 mM and titrated stepwise with a dilution of 1:5. 0.5 μL of the compound dilution was added to the appropriate well to achieve a final concentration of 10; 2; 0.4; 0.08 and 0.016 μM. A DMSO only well was included as control.
The cells were incubated for 24 h in the presence of the compound at 37° C. and 10% CO2.
After the 24 h incubation period, the medium was removed and cells washed with 0.5 mL PBS. The cells were then lysed directly in 60 μL of 1×SDS gel loading buffer.
The cell lysate was heat-denatured at […] for 10 min. 10 μL of lysate per well were run on 18-well 4-15% Criterion TGX stain free gels (BIO-RAD). The proteins were then transferred onto nitrocellulose membrane with a wet transfer protocol in the Criterion Blotter (BIO-RAD).
Membranes were blocked with 5% skim milk in TBST. Primary antibody against MLKL (clone 3H1, MABC604 Merck) was used at 1:2000 dilution in TBST with 1% BSA and left shaking over night at 4° C. After washes with TBST, the membranes were incubated with goat anti-rat IgG HRP-conjugated antibody (Southern Biotech) in 1% skim milk TBST at 1:10000 dilution for 1 h at room temperature. After TBST washes the bands were imaged on the ChemiDoc MP Imaging System (BIO-RAD) with Immobilion Western Chemiluminescent HRP Substrate Forte (Millipore). The loading control GAPDH was probed for with rabbit anti-GAPDH (CST 14C10) at 1:2000 dilution in 1% BSA TBST over night at 4° C. TBST washes were followed by incubation with goat anti-rabbit IgG HRP-conjugated antibody (Southern Biotech) in 1% skim milk TBST at 1:10000 dilution for 1 h at room temperature followed by TBST washes. The signal was detected as described above.
The band intensity was measured in the ImageLab Software (BIO-RAD) and the MLKL values adjusted for loading with GAPDH. The percentage of degradation was calculated by normalizing the compound treated values to the DMSO only control.

Sequence of human MLKL (full length) (Q8NB16 whole entry): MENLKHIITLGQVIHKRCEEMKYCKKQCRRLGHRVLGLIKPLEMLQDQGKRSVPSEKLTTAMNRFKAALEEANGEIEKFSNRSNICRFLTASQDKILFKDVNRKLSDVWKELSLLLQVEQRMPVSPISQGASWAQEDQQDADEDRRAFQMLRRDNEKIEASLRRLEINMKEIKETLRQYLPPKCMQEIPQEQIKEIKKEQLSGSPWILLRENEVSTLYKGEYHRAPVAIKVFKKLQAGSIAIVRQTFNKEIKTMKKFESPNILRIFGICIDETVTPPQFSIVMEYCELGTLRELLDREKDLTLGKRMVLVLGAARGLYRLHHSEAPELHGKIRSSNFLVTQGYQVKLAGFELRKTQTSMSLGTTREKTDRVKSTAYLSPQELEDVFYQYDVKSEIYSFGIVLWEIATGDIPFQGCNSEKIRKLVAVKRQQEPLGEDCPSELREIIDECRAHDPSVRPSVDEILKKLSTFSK
Sequence of endogenous MLKL in MDF (Q9D2Y4 whole entry): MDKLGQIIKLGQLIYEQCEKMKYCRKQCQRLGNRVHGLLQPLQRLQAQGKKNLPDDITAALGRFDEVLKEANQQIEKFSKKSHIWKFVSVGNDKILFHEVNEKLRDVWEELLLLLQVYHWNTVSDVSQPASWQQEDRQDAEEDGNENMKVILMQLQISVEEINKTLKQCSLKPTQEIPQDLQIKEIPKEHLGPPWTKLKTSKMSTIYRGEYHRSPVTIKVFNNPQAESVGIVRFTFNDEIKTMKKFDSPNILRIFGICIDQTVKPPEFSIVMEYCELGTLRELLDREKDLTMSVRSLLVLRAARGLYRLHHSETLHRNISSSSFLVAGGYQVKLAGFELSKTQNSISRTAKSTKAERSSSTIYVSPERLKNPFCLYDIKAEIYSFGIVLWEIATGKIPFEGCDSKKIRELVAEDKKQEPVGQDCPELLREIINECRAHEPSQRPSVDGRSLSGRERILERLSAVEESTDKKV

SMILES | Kd (human MLKL (full length)) | DC50 (endogenous MLKL in MDF) | IC50 [1]
C[C@H](Oc1cc(-c2nn(C)c3c(-c4cnn(C5CCN(C(=O)CCC6CCN(c7cccc8c7C(=O)N(C7CCC(=O)NC7=O)C8=O)CC6)CC5)c4)cnc(N)c23)ccc1NS(=O)(=O)C(F)F)c1ccc(F)cc1 (stereo partly drawn) [Compound 1043, N-[4-(4-amino-7-{1-[1-(3-{1-[2-(2,6-dioxopiperidin-3-yl)-1,3-dioxo-2,3-dihydro-1H-isoindol-4-yl]piperidin-4-yl}propanoyl)piperidin-4-yl]-1H-pyrazol-4-yl}-1-methyl-1H-pyrazolo[4,3-c]pyridin-3-yl)-2-[(1S)-1-(4-fluorophenyl)ethoxy]phenyl]-1,1-difluoromethanesulfonamide] | 10 to 1000 nM | < 1000 nM | < 1000 nM
Cc1ncsc1-c1ccc(CNC(=O)[C@@H]2C[C@@H](O)CN2C(=O)[C@@H](NC(=O)COCCOc2ccc(-c3cnc(N)c4c(-c5ccc(NS(=O)(=O)C(F)F)c(O[C@@H](C)c6ccc(F)cc6)c5)nn(C)c34)cc2)C(C)(C)C)cc1 [Compound 1049, (2S,4R)-1-[(2S)-2-{2-[2-(4-{4-amino-3-[4-(difluoromethanesulfonamido)-3-[(1S)-1-(4-fluorophenyl)ethoxy]phenyl]-1-methyl-1H-pyrazolo[4,3-c]pyridin-7-yl}phenoxy)ethoxy]acetamido}-3,3-dimethylbutanoyl]-4-hydroxy-N-{[4-(4-methyl-1,3-thiazol-5-yl)phenyl]methyl}pyrrolidine-2-carboxamide] | 10 to 1000 nM | < 1000 nM | 1000 to 10000 nM
C[C@H](Oc1cc(-c2nn(C)c3c(-c4cnn(C5CCN(C(=O)CC6CCN(c7cccc8c7C(=O)N(C7CCC(=O)NC7=O)C8=O)C6)CC5)c4)cnc(N)c23)ccc1NS(=O)(=O)C(F)F)c1ccc(F)cc1 (stereo partly drawn) [Compound 1053, N-[4-(4-amino-7-{1-[1-(2-{1-[2-(2,6-dioxopiperidin-3-yl)-1,3-dioxo-2,3-dihydro-1H-isoindol-4-yl]pyrrolidin-3-yl}acetyl)piperidin-4-yl]-1H-pyrazol-4-yl}-1-methyl-1H-pyrazolo [4,3-c]pyridin-3-yl)-2-[(1S)-1-(4-fluorophenyl)ethoxy]phenyl]-1,1-difluoromethanesulfonamide] | 10 to 1000 nM | < 1000 nM | < 1000 nM
C[C@H](Oc1cc(-c2nn(C)c3c(-c4cnn(C5CCN(CCn6cc(CCNc7cccc8c7C(=O)N(C7CCC(=O)NC7=O)C8=O)nn6)CC5)c4)cnc(N)c23)ccc1NS(=O)(=O)C(F)F)c1ccc(F)cc1 (stereo partly shown) [Compound 1128, N-(4-{4-amino-7-[1-(1-{2-[4-(2-{[2-(2,6-dioxopiperidin-3-yl)-1,3-dioxo-2,3-dihydro-1H-isoindol-4-yl]amino}ethyl)-1H-1,2,3-triazol-1-yl]ethyl}piperidin-4-yl)-1H-pyrazol-4-yl]-1-methyl-1H-pyrazolo[4,3-c]pyridin-3-yl}-2-[(1 S)-1-(4-fluorophenyl)ethoxy]phenyl)-1,1-difluoromethanesulfonamide] |  | < 1000 nM | < 1000 nM

Further lines, with some results ahead:

Kd (human MLKL (full length)) | DC50 (endogenous MLKL in MDF) | SMILES | IC50 [1]
10 to 1000 nM | < 1000 nM | C[C@H](Oc1cc(-c2nn(C)c3c(-c4cnn(C5CCN(C(=O)[C@H]6C[C@@H](Nc7cccc8c7C(=O)N(C7CCC(=O)NC7=O)C8=O)C6)CC5)c4)cnc(N)c23)ccc1NS(=O)(=O)C(F)F)c1ccc(F)cc1 (stereo partly drawn) [Compound 1055, N-{4-[4-amino-1-methyl-7-(1-{1-[(cis)-3-{[2-(2,6-dioxopiperidin-3-yl)-1,3-dioxo-2,3-dihydro-1H-isoindol-4-yl]amino}cyclobutane-carbonyl]piperidin-4-yl}-1H-pyrazol-4-yl)-1H-pyrazolo[4,3-c]pyridin-3-yl]-2-[(1S)-1-(4-fluorophenyl)ethoxy]phenyl}-1,1-difluoromethanesulfonamide] | < 1000 nM
10 to 1000 nM | < 1000 nM | C[C@H](Oc1cc(-c2nn(C)c3c(-c4cnn(C5CCN(C(=O)C6CN(c7cccc8c7C(=O)N(C7CCC(=O)NC7=O)C8=O)CCO6)CC5)c4)cnc(N)c23)ccc1NS(=O)(=O)C(F)F)c1ccc(F)cc1 (stereo partly drawn) [Compound 1070, N-(4-{4-amino-7-[1-(1-{4-[2-(2,6-dioxopiperidin-3-yl)-1,3-dioxo-2,3-dihydro-1H-isoindol-4-yl]morpholine-2-carbonyl}piperidin-4-yl)-1H-pyrazol-4-yl]-1-methyl-1H-pyrazolo[4,3-c]pyridin-3-yl}-2-[(1S)-1-(4-fluorophenyl)ethoxy]phenyl)-1,1-difluoromethanesulfonamide] | < 1000 nM
< 10 nM | < 1000 nM | C[C@H](Oc1cc(-c2nn(C)c3c(-c4cnn(C5CCN(C(=O)[C@H]6CC[C@@H](Nc7cccc8c7C(=O)N(C7CCC(=O)NC7=O)C8=O)CC6)CC5)c4)cnc(N)c23)ccc1NS(=O)(=O)C(F)F)c1ccc(F)cc1 (stereo partly shown) [Compound 1071] | < 1000 nM
 | < 1000 nM | C[C@H](Oc1cc(-c2nn(C)c3c(-c4cnn(C5CCN(C(=O)Cc6cccc7c6C(=O)N(C6CCC(=O)NC6=O)C7=O)CC5)c4)cnc(N)c23)ccc1NS(=O)(=O)C(F)F)c1ccc(F)cc1 (stereo partly drawn) [Compound 1137, N-(4-{4-amino-7-[1-(1-{2-[2-(2,6-dioxopiperidin-3-yl)-1,3-dioxo-2,3-dihydro-1H-isoindol-4-yl]acetyl}piperidin-4-yl)-1H-pyrazol-4-yl]-1-methyl-1H-pyrazolo[4,3-c]pyridin-3-yl}-2-[(1S)-1-(fluorophenyl)ethoxy]phenyl)-1,1-difluoromethanesulfonamide] | 1000 to 10000 nM
